These results are taken from US8822229B2, “Method for assaying keratan sulfate, assay kit therefor and method for detecting joint disease by using the same” (Seikagaku Corporation, priority 2008, dated 2014).

Molecules are shown by their SMILES.

The subject of test [1] is adjuvant-induced arthritis (AIA) model in rats. In words: adjuvant-induced arthritis (AIA) model in rats, left hind paw edema volume. The format is in vivo, rat. Conditions: incadronate 1 mg/kg s.c. once a day from day 14; day 35 after adjuvant; vs AIA control group. The protocol: (§1) In Example 5, 6-week-old male Lewis rats (SPF, Charles River Laboratories Japan, Inc.) were employed. The adjuvant was prepared by suspending heat-killed Mycobacterium butyricum (product of DIFCO) in liquid paraffin (product of Wako Pure Chemical Industries, Ltd.) at a concentration of 6 mg/mL. The adjuvant was subcutaneously administered to each of the rats in the right hind paw (0.3 mg/paw) without anesthesia. Fourteen days after administration, the rats were divided into 4 groups. To a non-treated normal control group, only liquid paraffin was administered to the rats in a similar manner. From the timing of the grouping, incadronate (Bisphonal (registered trademark) injection (10 mg), product of Astellas Pharma Inc.) was subcutaneously administered to the rats every day (once a day) at a dose of 1 mg/kg to the day before the day of sacrifice. […] The edema volume of the left hind paw was measured by means of a volumetric apparatus (TK-101CMP, product of UNICOM). […] The plasma KS level (non-treated control group, AIA control group, and incadronate-administered group) was determined on day 35 after administration of the adjuvant, by means of a conventional KS assay kit (5D4 assay system) and through the KS assay system of the present invention. […]

A short description of test [2]: adjuvant-induced arthritis (AIA) model in rats, plasma KS level. It counts as in vivo, rat. Conditions: incadronate 1 mg/kg s.c. once a day from day 14; day 35 after adjuvant; BCD-4/MK-172 assay; vs AIA control group. The procedure:
as §1

Take `O=P(O)(O)C(NC1CCCCCC1)P(=O)(O)O` [incadronate]: the left paw volume result in test [1] is “reduced as compared with the AIA control group”. The “plasma KS level” value in test [2] is recorded as “reduced as compared with the AIA control group”.
